{"source": "patent US11325944B2", "about": "(priority 2017, dated 2022)", "origin": "cited, not measured here", "key": {"KOR [1]": {"system": "KOR"}, "KOR [2]": {"biological_target": "KOR (Homo sapiens, UniProt P41145)", "sequence (P41145 whole entry)": "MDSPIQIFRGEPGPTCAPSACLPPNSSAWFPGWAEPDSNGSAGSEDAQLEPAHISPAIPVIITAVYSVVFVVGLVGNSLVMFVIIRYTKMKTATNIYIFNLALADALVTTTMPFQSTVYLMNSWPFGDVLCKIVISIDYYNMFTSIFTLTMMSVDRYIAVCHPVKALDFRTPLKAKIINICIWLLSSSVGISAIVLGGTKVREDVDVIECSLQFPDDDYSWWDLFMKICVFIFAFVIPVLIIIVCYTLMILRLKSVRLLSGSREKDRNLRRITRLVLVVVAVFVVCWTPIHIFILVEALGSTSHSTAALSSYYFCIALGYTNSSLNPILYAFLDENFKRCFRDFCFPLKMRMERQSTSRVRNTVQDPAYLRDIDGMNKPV"}, "DOR": {"biological_target": "DOR", "details": "δ opioid receptor, CHO cell membranes; read-out: Kd of radioligand"}}, "note": "[ ]: non-standard residue; d: D form."}
{"substance": "cyclo [CJ-15,208, cyclo [Phe-D-Pro-Phe-Trp]]", "values": [{"measurement": "agonist (antinociceptive) activity in vivo", "setting": "KOR [1]", "result": "mild agonist (antinociceptive) activity"}]}
{"substance": "cyclo(F[dP]F[dW]) [[D-Trp]CJ-15,208]", "values": [{"measurement": "KOR antagonism", "setting": "KOR [1]; in vivo", "result": "exhibited KOR antagonism"}, {"measurement": "selectivity for KOR over MOR and DOR", "setting": "KOR [2]", "result": "selective activity against the kappa opioid receptor (KOR) over mu opioid receptors (MOR) and delta opioid receptors (DOR)"}, {"measurement": "KOR antagonism in vitro", "setting": "KOR [2]; in vitro", "result": "antagonize KOR in vitro"}]}
{"substance": "cyclo[D-Pen^2, D-Pen]enkephalin [[^3H]-DPDPE]", "values": [{"measurement": "Kd", "setting": "DOR", "result": 1.76, "unit": "nM"}]}
